Reference: patent publication US12742284B2, “Antimicrobial polymer coatings on textiles” (MICROBAN PRODUCTS COMPANY, priority 2022, dated 2023)

Test system: Kp
Assay: AATCC TM 100 antimicrobial test on treated polyester after home launderings
Details: for AATCC TM 100, Antimicrobial Test result (Kp - log reduction): 1.5% o.w.f. on polyester

[Na+].[O-][n+]1ccccc1[S-] [Sodium Pyrithione]
AATCC TM 100, Antimicrobial Test result (Kp - log reduction) (1 HL): 0.5 log reduction
AATCC TM 100, Antimicrobial Test result (Kp - log reduction) (25 HL): 0 log reduction
antimicrobial performance (in words) (after one cycle of home laundering): little efficacy
antimicrobial performance (in words) (after twenty-five home launderings): did not have antimicrobial performance
